This note sets out measurements from US20170008888A1 (KYORIN PHARMACEUTICAL CO., LTD., priority 2014, published 2017).

The subject of assay [1] is DNFB-induced ear inflammation mouse model. As to the kind of experiment: DNFB-induced ear inflammation (contact hypersensitivity) mouse model: ear weight. The assay is classed as in vivo, mouse (Balb/c). On the procedure:
In vivo T-cell mediated immune response was examined in a mouse model of CHS using the hapten dinitrofluorobenzene (DNFB) as the induction agent. Method for sensitization and elicitation of DNFB-induced CHS was modified from Xu et al. J. Exp. Med. 1996. 183:1001-1012. On Days 0 and 1 (sensitization), 20 μL of 0.5% v/v DNFB in acetone:olive oil (4:1) was applied to each hindpaw of 8 week old male mice (Balb/c, Charles River Laboratories; 10 mice per group unless otherwise noted). On Day 5 (elicitation) 10 μL of 0.2% v/v DNFB in acetone: olive oil (4:1) was applied to the dorsal surface of the right ear of each animal; 10 μL of acetone: olive oil (4:1) was applied to the dorsal surface of the left ear as control. Treatments were administered by group as indicated in the table below; on days when DNFB was used, the QD and the morning dose of BID as appropriate were administered 30 minutes-1 hr. prior to DNFB application. […] Approximately 24 hours after elicitation (Day 6), a 7 mm tissue punch from the central portion of both ears was collected and wet weights measured. The primary functional assessment was the difference in wet weights of the right (DNFB) vs. left (vehicle) ears compared to the vehicle treatment (Vehicle1-S) as an indicator of inflammation (Table 17). Ear tissue punches were flash frozen, stored at −70° C. and analyzed for cytokines (see below). Body weights of the mice were measured at baseline and at end of study, and there were no significant changes in weight in any treatment group during the study (data not shown).

Assay [2] relates to primary human corneal epithelial cells. As to the kind of experiment: Cytokine response in primary human corneal epithelial cells stimulated with IFNγ, IL-1β or IL-17A. The assay is classed as cell-based. The settings on record: Corneal epithelial cell, 24 h, 5 μM compound. On the procedure:
Primary corneal epithelial cells were obtained from Life Technologies (Carlsbad, Calif.) and maintained in Keratinocyte-SFM media supplemented with EGF and bovine pituitary extract (Life Technologies). Cells were seeded at 1e5 cells/ml and incubated at 37° C. in a humidified atmosphere at 5% CO2 overnight to adhere. Cells were supplement-starved overnight in unsupplemented K-SFM media containing 0.5% BSA then treated with compound for 1 h at 37° C. in a humidified atmosphere at 5% CO2. DMSO at a final concentration of 0.1% served as the non-inhibited control. Cells were stimulated with 20 ng/ml of human recombinant IFNγ (R & D Systems, Minneapolis, Minn.), IL-1β (R & D Systems), or IL-17A (eBioscience, San Diego, Calif.) for 24 h. Supernatant was then collected and analyzed for cytokine concentrations using the Bio-Plex Pro Human Cytokine 17-Plex Panel (Bio-Rad Laboratories, Hercules, Calif.) according to the manufacturer's instructions. Magnetic beads were measured on the Bio-Plex MAGPIX multiplex reader instrument using the accompanying xPONENT 4.2 acquisition software (Bio-Rad Laboratories). Data were analyzed via the Bio-Plex Manager software v6.1 (Bio-Rad Laboratories).
Percent inhibition of cytokines in culture supernatant during 5 μM compound treatment of primary corneal epithelial cells. Shown below are data from a representative experiment.

In a further assay the target is T1, BRD3 (Homo sapiens, UniProt Q15059).
T1 construct: read out by qPCR of the phage DNA
T1 sequence (Q15059 whole entry): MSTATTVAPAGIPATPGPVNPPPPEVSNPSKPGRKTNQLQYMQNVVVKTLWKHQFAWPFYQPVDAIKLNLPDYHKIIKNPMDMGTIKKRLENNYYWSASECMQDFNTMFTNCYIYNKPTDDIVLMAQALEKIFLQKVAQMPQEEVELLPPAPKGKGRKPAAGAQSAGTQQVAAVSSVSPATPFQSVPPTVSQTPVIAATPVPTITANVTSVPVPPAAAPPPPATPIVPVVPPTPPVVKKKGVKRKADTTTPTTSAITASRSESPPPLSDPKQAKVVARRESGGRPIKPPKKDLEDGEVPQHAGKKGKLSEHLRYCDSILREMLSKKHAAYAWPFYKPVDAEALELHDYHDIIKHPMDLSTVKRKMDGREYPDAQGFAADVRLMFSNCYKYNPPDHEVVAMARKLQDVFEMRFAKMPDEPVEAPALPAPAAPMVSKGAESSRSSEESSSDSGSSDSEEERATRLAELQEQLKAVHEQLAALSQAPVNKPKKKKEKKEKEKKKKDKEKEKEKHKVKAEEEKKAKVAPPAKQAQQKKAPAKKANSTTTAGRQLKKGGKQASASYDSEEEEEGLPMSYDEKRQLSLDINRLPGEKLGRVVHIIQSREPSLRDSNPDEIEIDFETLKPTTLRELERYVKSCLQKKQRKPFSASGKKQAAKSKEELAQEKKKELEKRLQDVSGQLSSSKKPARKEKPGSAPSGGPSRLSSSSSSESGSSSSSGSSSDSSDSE
In words: Bromodomain binding assay: BRD3. Here is the method: (§1) T7 phage strains displaying bromodomains were grown in parallel in 24-well blocks in an E. coli host derived from the BL21 strain. E. coli were grown to log-phase and infected with T7 phage from a frozen stock (multiplicity of infection=0.4) and incubated with shaking at 32° C. until lysis (90-150 minutes). The lysates were centrifuged (5,000×g) and filtered (0.2 μm) to remove cell debris. […] The liganded beads were blocked with excess biotin and washed with blocking buffer (SeaBlock (Pierce), 1% BSA, 0.05 Tween 20, 1 mM DTT) to remove unbound ligand and to reduce non-specific phage binding. […] Test compounds (T62 and 46) were prepared as 1000× stocks in 100% DMSO and subsequently diluted 1:10 in monoethylene glycol (MEG) to create stocks at 100× the screening concentration (resulting stock solution is 10% DMSO/90% MEG). The compounds were then diluted directly into the assays such that the final concentration of DMSO and MEG were 0.1% and 0.9%, respectively. All reactions were performed in polystyrene 96-well plates in a final volume of 0.135 ml. […] The bromodomain concentration in the eluates was measured by qPCR. Compounds were assayed for binding activity against a panel of 40 bromodomain-containing proteins.

A further assay deals with T2, BAZ2A (Homo sapiens, UniProt Q9UIF9).
T2 construct: T7 phage strains displaying bromodomains were grown in parallel; made in house; host or cells: E. coli host derived from BL21, infected with T7 phage
T2 sequence (Q9UIF9 1793-1897 limits assumed, species assumed): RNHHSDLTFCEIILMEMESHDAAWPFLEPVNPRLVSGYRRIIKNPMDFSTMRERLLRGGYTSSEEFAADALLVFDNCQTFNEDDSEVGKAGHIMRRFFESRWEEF
As to the kind of experiment: Bromodomain binding assay: BAZ2A. Here is the method: as §1

For the next assay, the target named is T3, BRD8 (Homo sapiens, UniProt Q9H0E9).
T3 construct: read out by qPCR of the phage DNA
T3 sequence (Q9H0E9 whole entry): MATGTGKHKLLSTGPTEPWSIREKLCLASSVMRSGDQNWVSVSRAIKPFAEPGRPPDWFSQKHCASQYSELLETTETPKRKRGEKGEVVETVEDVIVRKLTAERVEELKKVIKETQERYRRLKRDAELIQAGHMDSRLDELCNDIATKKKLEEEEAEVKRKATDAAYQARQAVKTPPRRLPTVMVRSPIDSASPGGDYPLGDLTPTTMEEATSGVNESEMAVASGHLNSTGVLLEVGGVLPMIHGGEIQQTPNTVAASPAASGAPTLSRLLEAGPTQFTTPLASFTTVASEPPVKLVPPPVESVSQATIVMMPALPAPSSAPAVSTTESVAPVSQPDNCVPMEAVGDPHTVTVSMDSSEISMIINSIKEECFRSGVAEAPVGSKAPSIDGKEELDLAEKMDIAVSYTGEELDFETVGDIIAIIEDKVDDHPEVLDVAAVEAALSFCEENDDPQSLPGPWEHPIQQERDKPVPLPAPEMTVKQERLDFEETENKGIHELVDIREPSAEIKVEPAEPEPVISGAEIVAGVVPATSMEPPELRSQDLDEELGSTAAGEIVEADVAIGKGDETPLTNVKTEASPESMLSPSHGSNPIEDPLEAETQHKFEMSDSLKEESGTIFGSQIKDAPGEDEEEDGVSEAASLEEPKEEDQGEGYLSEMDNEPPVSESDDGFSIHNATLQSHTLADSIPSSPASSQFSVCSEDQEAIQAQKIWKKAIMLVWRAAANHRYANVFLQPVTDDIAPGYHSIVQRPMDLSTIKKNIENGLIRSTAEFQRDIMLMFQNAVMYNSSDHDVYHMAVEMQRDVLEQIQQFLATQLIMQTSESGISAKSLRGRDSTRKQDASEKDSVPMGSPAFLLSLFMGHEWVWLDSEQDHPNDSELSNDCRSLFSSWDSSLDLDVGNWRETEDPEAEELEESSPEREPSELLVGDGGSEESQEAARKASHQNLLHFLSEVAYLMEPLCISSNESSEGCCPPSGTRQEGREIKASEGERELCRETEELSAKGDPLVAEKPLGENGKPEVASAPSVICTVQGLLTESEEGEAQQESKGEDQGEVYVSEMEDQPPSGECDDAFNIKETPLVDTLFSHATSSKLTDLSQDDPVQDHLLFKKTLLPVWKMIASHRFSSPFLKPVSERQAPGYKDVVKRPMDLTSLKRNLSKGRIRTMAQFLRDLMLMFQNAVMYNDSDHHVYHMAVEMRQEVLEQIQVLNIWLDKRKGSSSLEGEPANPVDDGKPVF
As to the kind of experiment: Bromodomain binding assay: BRD8. On the procedure:
as §1

A further assay has as its target T4, BRPF3 (Homo sapiens, UniProt Q9ULD4).
T4 construct: T7 phage strains displaying bromodomains were grown in parallel; made in house; host or cells: E. coli host derived from BL21, infected with T7 phage
As to the kind of experiment: Bromodomain binding assay: BRPF3. On the procedure: as §1

The next assay addresses T5, FALZ (Homo sapiens, UniProt Q12830).
T5 construct: made in house; host or cells: E. coli host derived from the BL21 strain (T7 phage lysate)
As to the kind of experiment: Bromodomain binding assay: FALZ. On the procedure:
as §1

For another assay, the target named is T6, PBRM1 (Homo sapiens, UniProt Q86U86).
T6 construct: read out by qPCR of the phage DNA
T6 sequence (Q86U86 whole entry): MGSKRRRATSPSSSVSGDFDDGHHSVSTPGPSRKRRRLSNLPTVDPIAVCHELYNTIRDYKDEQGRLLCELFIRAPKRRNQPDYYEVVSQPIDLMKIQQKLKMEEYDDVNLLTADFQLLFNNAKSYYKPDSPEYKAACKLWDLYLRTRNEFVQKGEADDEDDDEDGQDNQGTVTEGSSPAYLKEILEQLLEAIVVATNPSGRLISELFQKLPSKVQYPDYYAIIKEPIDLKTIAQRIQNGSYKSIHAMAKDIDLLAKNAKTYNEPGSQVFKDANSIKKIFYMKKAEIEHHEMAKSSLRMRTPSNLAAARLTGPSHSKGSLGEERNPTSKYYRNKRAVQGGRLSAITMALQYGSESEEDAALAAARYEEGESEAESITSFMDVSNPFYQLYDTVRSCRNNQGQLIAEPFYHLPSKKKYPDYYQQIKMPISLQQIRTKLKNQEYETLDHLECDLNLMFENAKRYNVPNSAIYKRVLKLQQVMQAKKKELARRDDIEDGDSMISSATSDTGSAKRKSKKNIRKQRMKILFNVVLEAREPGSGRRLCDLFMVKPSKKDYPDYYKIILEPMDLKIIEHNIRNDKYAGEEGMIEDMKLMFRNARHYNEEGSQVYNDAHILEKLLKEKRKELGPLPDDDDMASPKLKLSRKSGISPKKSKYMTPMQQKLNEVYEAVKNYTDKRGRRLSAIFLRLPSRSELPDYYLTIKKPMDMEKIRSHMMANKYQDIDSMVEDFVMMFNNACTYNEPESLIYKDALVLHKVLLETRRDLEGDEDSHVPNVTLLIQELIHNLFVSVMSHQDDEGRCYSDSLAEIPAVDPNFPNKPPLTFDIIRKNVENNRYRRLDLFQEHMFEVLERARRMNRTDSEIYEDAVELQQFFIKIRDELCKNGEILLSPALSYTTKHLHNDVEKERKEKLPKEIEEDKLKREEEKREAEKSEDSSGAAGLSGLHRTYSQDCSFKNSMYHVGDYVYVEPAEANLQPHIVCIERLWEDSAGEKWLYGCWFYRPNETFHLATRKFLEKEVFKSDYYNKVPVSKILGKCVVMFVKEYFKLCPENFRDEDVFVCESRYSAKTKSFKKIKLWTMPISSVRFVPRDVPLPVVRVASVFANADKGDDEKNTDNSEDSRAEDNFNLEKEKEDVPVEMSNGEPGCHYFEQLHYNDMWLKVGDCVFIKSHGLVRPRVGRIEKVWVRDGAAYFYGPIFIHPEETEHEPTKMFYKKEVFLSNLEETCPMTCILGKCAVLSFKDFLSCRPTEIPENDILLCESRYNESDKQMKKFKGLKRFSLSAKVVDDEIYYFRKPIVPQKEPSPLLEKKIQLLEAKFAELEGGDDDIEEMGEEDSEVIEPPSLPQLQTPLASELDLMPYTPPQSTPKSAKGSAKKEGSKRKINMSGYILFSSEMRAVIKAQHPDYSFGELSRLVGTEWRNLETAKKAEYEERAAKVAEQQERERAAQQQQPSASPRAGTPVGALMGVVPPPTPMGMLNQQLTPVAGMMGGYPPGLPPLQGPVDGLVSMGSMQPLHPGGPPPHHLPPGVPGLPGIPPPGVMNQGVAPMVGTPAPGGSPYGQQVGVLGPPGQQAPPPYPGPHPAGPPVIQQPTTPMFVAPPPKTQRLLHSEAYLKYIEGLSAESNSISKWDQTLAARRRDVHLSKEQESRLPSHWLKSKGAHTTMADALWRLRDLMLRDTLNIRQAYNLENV
As to the kind of experiment: Bromodomain binding assay: PBRM1. Here is the method:
as §1

The target in the next assay is T7, PCAF (Homo sapiens, UniProt Q92831).
T7 construct: made in house; host or cells: E. coli host derived from the BL21 strain (T7 phage lysate)
T7 sequence (Q92831 723-827 limits assumed): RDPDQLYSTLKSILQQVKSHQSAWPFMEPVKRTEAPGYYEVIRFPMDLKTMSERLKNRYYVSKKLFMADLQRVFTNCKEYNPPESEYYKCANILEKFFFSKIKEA
As to the kind of experiment: Bromodomain binding assay: PCAF. On the procedure: as §1

The next assay deals with T8, SMARCA2 (Homo sapiens, UniProt P51531).
T8 construct: made in house; host or cells: E. coli host derived from the BL21 strain (T7 phage lysate)
T8 sequence (P51531 1378-1506 limits assumed): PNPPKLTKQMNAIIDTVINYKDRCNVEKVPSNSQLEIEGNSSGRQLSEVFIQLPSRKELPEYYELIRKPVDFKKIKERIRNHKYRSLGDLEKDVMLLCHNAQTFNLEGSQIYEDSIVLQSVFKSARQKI
As to the kind of experiment: Bromodomain binding assay: SMARCA2. Here is the method: as §1

Another assay addresses T9, TRIM33 (Homo sapiens, UniProt Q9UPN9).
T9 construct: made in house; host or cells: E. coli host derived from the BL21 strain (T7 phage lysate)
In words: Bromodomain binding assay: TRIM33. On the procedure: as §1

Setting [3] is: 25 mg/kg PO, BID on Day 5 (elicitation).
The mark [4] stands for this setting: 60 mg/kg PO, BID Days 0-5 (from sensitization).
Setting [5] is: 60 mg/kg PO, BID on Day 5 (elicitation).
The mark [6] stands for this setting: +20 ng/ml IFNγ, read-out: Percent inhibition of cytokine relative to DMSO controls, G-CSF.
Where [7] appears, read: +20 ng/ml IFNγ, read-out: Percent inhibition of cytokine relative to DMSO controls, GM-CSF.
The mark [8] stands for this setting: +20 ng/ml IFNγ, read-out: Percent inhibition of cytokine relative to DMSO controls, IL-6.
[9] abbreviates: +20 ng/ml IFNγ, read-out: Percent inhibition of cytokine relative to DMSO controls, MCP-1.
The mark [10] stands for this setting: +20 ng/ml IL-1β, read-out: Percent inhibition of cytokine relative to DMSO controls, G-CSF.
Where [11] appears, read: +20 ng/ml IL-1β, read-out: Percent inhibition of cytokine relative to DMSO controls, GM-CSF.
Setting [12] is: +20 ng/ml IL-1β, read-out: Percent inhibition of cytokine relative to DMSO controls, IL-6.
The mark [13] stands for this setting: +20 ng/ml IL-1β, read-out: Percent inhibition of cytokine relative to DMSO controls, MCP-1.
The mark [14] stands for this setting: +20 ng/ml IL-17A, read-out: Percent inhibition of cytokine relative to DMSO controls, G-CSF.
Where [15] appears, read: +20 ng/ml IL-17A, read-out: Percent inhibition of cytokine relative to DMSO controls, GM-CSF.
[16] abbreviates: +20 ng/ml IL-17A, read-out: Percent inhibition of cytokine relative to DMSO controls, IL-6.
Setting [17] is: +20 ng/ml IL-17A, read-out: Percent inhibition of cytokine relative to DMSO controls, MCP-1.

The structures appear in SMILES notation. Where two headings read alike, the source gives them in different places.

T4 sequence (Q9ULD4 589-693 limits assumed, species assumed): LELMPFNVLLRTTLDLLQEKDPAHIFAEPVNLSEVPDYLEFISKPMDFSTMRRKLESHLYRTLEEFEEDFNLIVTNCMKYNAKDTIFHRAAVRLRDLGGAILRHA
T9 sequence (Q9UPN9 957-1080 limits assumed): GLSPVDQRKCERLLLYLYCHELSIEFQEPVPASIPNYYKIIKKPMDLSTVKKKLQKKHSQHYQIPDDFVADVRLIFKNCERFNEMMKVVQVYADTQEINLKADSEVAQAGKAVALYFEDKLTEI

On to `CCOc1cc(C(=O)N2CCCN(C)CC2)ccc1Nc1cc2c(cn1)N(C)C(=O)c1ccccc1N2C` [Compound 8], for which the “% Reduction Weight Increase Vs. Vehicle 1 Weight Increase” value in assay [1] (setting [3]) is on record as −9.4%; in assay [1] (setting [4]) it was −38.5%; in assay [1] (setting [5]) it was −22.6%.
In the case of `CCOc1cc(C(=O)N2CCC(N3CCCC3)CC2)ccc1Nc1cc2c(cn1)N(C)C(=O)c1ccccc1N2C` [Compound 46, 3-(2-Ethoxy-4-(4-(pyrrolidin-1-yl)piperidine-1-carbonyl)phenylamino)-5,11-dimethyl-5H-benzo[e]pyrido[3,4-b][1,4]diazepin-10(11H)-one], the “% Reduction Weight Increase Vs. Vehicle 1 Weight Increase” value is given as −39.5% in [1] (setting [3]), −39.5% in [1] (setting [4]) and −40.5% in assay [1] (setting [5]). Also, the inhibition at 5 µM is 42.1% in assay [2] (setting [6]); 30.4% in assay [2] (setting [7]); 84.4% in assay [2] (setting [8]); 93.4% in assay [2] (setting [9]); 86.3% in assay [2] (setting [10]); 97% in assay [2] (setting [11]). Moreover, the inhibition at 5 µM in assay [2] (setting [12]) stood at 92.2%; in assay [2] (setting [13]), 52.1%; in assay [2] (setting [14]), 90.3%; in assay [2] (setting [15]) it was 92.5%; in assay [2] (setting [16]) it was 94.7%; in assay [2] (setting [17]) it was 42.7%. The Kd at BRD3 is 33 nM; on BAZ2A it was > 20 µM; on BRD8, > 20 µM; on BRPF3 it was > 20 µM; at FALZ, > 20 µM; at PBRM1, > 20 µM. For the same compound, the Kd at PCAF, at SMARCA2 and at TRIM33 was > 20 µM in each case.
Take `CCOc1cc(C(=O)N[C@H]2CC[C@H](O)CC2)ccc1Nc1cc2c(cn1)N(C)C(=O)c1ccccc1N2C` [Compound T62]: the inhibition at 5 µM in assay [2] (setting [6]) was determined as 28%; in assay [2] (setting [7]), 25.4%; in assay [2] (setting [8]), 67.9%; in assay [2] (setting [9]), 89.5%; in assay [2] (setting [10]), 89.3%; in assay [2] (setting [11]), 97.1%. The inhibition at 5 µM in assay [2] (setting [12]) turned out to be 88.7%; in assay [2] (setting [13]), 58%; in assay [2] (setting [14]), 86.4%; in [2] (setting [15]) it was 89.7%; in [2] (setting [16]), 89.6%; in assay [2] (setting [17]), 36%. For the same compound, the equilibrium dissociation constant (Kd) was 110 nM at BRD3; > 20 µM at BAZ2A; > 20 µM at BRD8; > 20 µM on BRPF3; > 20 µM on FALZ; > 20 µM at PBRM1. The dissociation constant Kd at PCAF, at SMARCA2 and at TRIM33 was > 20 µM each time.

One may read the inhibition as the change of the read-out against control, counted positive when it falls. As a reminder, the Kd is the constant that tells how readily two partners part at equilibrium.
